According to publication PMC11571207, “Stereorandomized Oncocins with Preserved Ribosome Binding and Antibacterial Activity” (Journal of Medicinal Chemistry, 2024):
Read-outs that look alike come from different tables or passages of the source. No end group written: not given here.

Assays:
S. aureus COL (MRSA) = assay: microbe, parasite or virus in culture; conditions: for MIC S. aureus, 12.5% MHB / MIC S. aureus, Full MHB: S. aureus COL (MRSA), 16–20 h at 37 °C; for MIC S. aureus, 12.5% MHB: 12.5% Müller–Hinton medium; for MIC S. aureus, Full MHB: full Müller–Hinton medium; for MIC S. aureus COL (MRSA): supplement CSV
Summary of the method: (§1)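 Read-out was visible growth after MTT addition, the MIC being the lowest inhibitory peptide concentration. Bacteria grown to log phase in LB were exposed in MH medium to peptide from 64 μg/mL in twofold dilutions for 15-18h at 37°C.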

A. baumannii ATCC19606 = assay: microbe, parasite or virus in culture; conditions: for MIC A. baumannii, 12.5% MHB / MIC A. baumannii, Full MHB: A. baumannii ATCC19606, 16–20 h at 37 °C; for MIC A. baumannii, 12.5% MHB: 12.5% Müller–Hinton medium; for MIC A. baumannii, Full MHB: full Müller–Hinton medium; for MIC A. baumannii ATCC19606: supplement CSV
Summary of the method: as §1

E. coli W3110 = assay: microbe, parasite or virus in culture; conditions: for MIC E. coli, 12.5% MHB / MIC E. coli, Full MHB: E. coli W3110, 16–20 h at 37 °C, broth microdilution; for MIC E. coli, 12.5% MHB: 12.5% Müller–Hinton medium; for MIC E. coli, Full MHB: full Müller–Hinton medium; for MIC E. coli W3110: supplement CSV
Summary of the method: as §1

K. pneumoniae NCTC 418 = assay: microbe, parasite or virus in culture; conditions: for MIC K. pneumoniae, 12.5% MHB / MIC K. pneumoniae, Full MHB: K. pneumoniae NCTC 418, 16–20 h at 37 °C; for MIC K. pneumoniae, 12.5% MHB: 12.5% Müller–Hinton medium; for MIC K. pneumoniae, Full MHB: full Müller–Hinton medium; for MIC K. pneumoniae NCTC418: supplement CSV
Summary of the method: as §1

P. aeruginosa PAO1 = assay: microbe, parasite or virus in culture; conditions: for MIC P. aeruginosa, 12.5% MHB / MIC P. aeruginosa, Full MHB: P. aeruginosa PAO1, 16–20 h at 37 °C; for MIC P. aeruginosa, 12.5% MHB: 12.5% Müller–Hinton medium; for MIC P. aeruginosa, Full MHB: full Müller–Hinton medium; for MIC P. aeruginosa PAO1: supplement CSV
Summary of the method: as §1

[1] = system: P. aeruginosa PA14 4.18 (pmrB); conditions: for MIC P. aeruginosa PA14 4.18 (pmrB), 12.5% MHB / MIC P. aeruginosa PA14 4.18 (pmrB), full MHB: polymyxin B resistant strain, 16–20 h at 37 °C; for MIC P. aeruginosa PA14 4.18 (pmrB), 12.5% MHB: 12.5% MHB pH 7.4; for MIC P. aeruginosa PA14 4.18 (pmrB), full MHB: full MHB pH 7.4; for MIC P. aeruginosa PA14 4.18: supplement CSV
human red blood cells = assay: Hemolysis assay, minimum hemolytic concentration
[2] = system: E. coli BW25113 sbmA::kan; conditions: Table S1, sbmA::kan mutant, 16-20 h at 37 °C
Protocol: (§2) Minimum inhibitory concentration assay
(§3) Antimicrobial activity was assayed against P. aeruginosa PAO1, K. pneumoniae NCTC418, E. coli W3110, A. baumannii ATCC 19606, methicillin-resistant S. aureus COL (MRSA), and for selected peptides on P. aeruginosa PA14 and the polymyxin-B-resistant derivative PA14 2P4, as well as the clinical isolates ZEM-1A and ZEM9A, K. pneumoniae OXA-48, S. aureus Newman, Enterobacter cloacae and Burkholderia cenocepacia. The minimal inhibitory concentration (MIC) was determined by using broth microdilution method. A colo ny of bacteria was picked and grown in Luria-Bertani (LB) medium overnight at 37°C. For E. coli BW25113 sbmA::kan the medium was supplemented with 25 mg/L of kanamycin. The next day, the culture was then regrown in LB medium to log phase (OD600 = 0.6 to 0.8), which lasted approximately 4 h, and diluted to an OD600 of 0.022 in the desired medium. Stock solutions of 1 mg/mL of the samples were prepared in sterilized milliQ water and diluted to the beginning concentration of 64 μg/mL in 300 μL Mueller Hinton (MH)-medium. The diluted samples were added to first well of 96-well microtiter plate (TPP, untreated, Faust Laborbedarf, AG, Schaffhausen) and diluted serially by ½. Finally, 4 μL of the bacterial suspension was inoculated into the sample solutions (150 μL/well) with a final inoculation of about 5∙10^5 CFU/mL. The plates were then incubated at 37°C for 15-18h. For each assay, sterility (broth only) and growth control (broth with bacterial inoculum, without antibiotics) were checked with two columns in the plate. The next day, 15 μL of 3-(4,5-dimethylthiazol-2-yl)-2,5-diphenyltetrazolium bromide (MTT) was added to each well of the plate, such a way that MIC was defined as the lowest concentration of the peptide that inhibited visible growth of the tested […]
(§4) Table S1. Activity of stereorandomized and diastereomeric oncocins against E. coli BW25113 WT and BW25113 sbmA::kan mutant in full and 12.5% MH, at pH 7.4. […]
(§5) a) Minimum inhibitory concentration (MIC, μg/mL) was determined on E. coli BW25113 WT and […]

E. coli BW25113 WT = conditions: Table S1, 16-20 h at 37 °C
Protocol: as §2, §3, §4, §5

[3] = 12.5% Müller-Hinton medium pH 7.4
[4] = full Müller-Hinton medium pH 7.4

| Substance | MIC S. aureus, 12.5% MHB (S. aureus COL (MRSA)) | MIC S. aureus, Full MHB (S. aureus COL (MRSA)) | MIC S. aureus COL (MRSA) (S. aureus COL (MRSA); 12.5% MH pH 7.4) [µg/mL] | MIC S. aureus COL (MRSA) (S. aureus COL (MRSA); full MH pH 7.4) [µg/mL] | MIC A. baumannii, 12.5% MHB (A. baumannii ATCC19606) [µg/mL] | MIC A. baumannii, Full MHB (A. baumannii ATCC19606) [µg/mL] | MIC A. baumannii ATCC19606 (A. baumannii ATCC19606; 12.5% MH pH 7.4) [µg/mL] | MIC A. baumannii ATCC19606 (A. baumannii ATCC19606; full MH pH 7.4) [µg/mL] | MIC E. coli, 12.5% MHB (E. coli W3110) [µg/mL] | MIC E. coli, Full MHB (E. coli W3110) [µg/mL] | MIC E. coli W3110 (E. coli W3110; 12.5% MH pH 7.4) [µg/mL] | MIC E. coli W3110 (E. coli W3110; full MH pH 7.4) [µg/mL] | MIC K. pneumoniae, 12.5% MHB (K. pneumoniae NCTC 418) [µg/mL] | MIC K. pneumoniae, Full MHB (K. pneumoniae NCTC 418) [µg/mL] | MIC K. pneumoniae NCTC418 (K. pneumoniae NCTC 418; 12.5% MH pH 7.4) [µg/mL] | MIC K. pneumoniae NCTC418 (K. pneumoniae NCTC 418; full MH pH 7.4) [µg/mL] | MIC P. aeruginosa, 12.5% MHB (P. aeruginosa PAO1) [µg/mL] | MIC P. aeruginosa, Full MHB (P. aeruginosa PAO1) [µg/mL] | MIC P. aeruginosa PAO1 (P. aeruginosa PAO1; 12.5% MH pH 7.4) [µg/mL] | MIC P. aeruginosa PAO1 (P. aeruginosa PAO1; full MH pH 7.4) [µg/mL] | other results |
| --- | --- | --- | --- | --- | --- | --- | --- | --- | --- | --- | --- | --- | --- | --- | --- | --- | --- | --- | --- | --- | --- |
| VDKPPYLPRPRPPRRIYNR [sr8Cterm-Onc] (VDKPPYLPRPRPPRRIYNR-NH2; also: residues 12-19 stereorandomized (1:1 L/D mixture)) | > 16 µg/mL | > 64 µg/mL | >16 | >64 | 4 | 32 | 4 | 32 | 4 | 8 | 4 | 8 | 2 | 4 | 2 | 4 | 8 | 64 | 8 | 64 | MIC P. aeruginosa PA14 4.18 (pmrB), 12.5% MHB [1]: 8 µg/mL; MIC P. aeruginosa PA14 4.18 (pmrB), full MHB [1]: 64 µg/mL; MIC P. aeruginosa PA14 4.18 ([1]; 12.5% MH pH 7.4): 8 µg/mL; MIC P. aeruginosa PA14 4.18 ([1]; full MH pH 7.4): 64 µg/mL; Haemolysis on hRBC, MHC (human red blood cells; 2.5% human red blood cells (final) in 10 mM phosphate, 150 mM NaCl, pH 7.4, 25 °C, 4 h, visual inspection): >1000 µg/mL; MHC human red blood cells (human red blood cells; supplement CSV): >1000 µg/mL |
| polymyxin B [PMB, reference compound] | >16 / 16 μg/mL | >16 / 16 μg/mL | 16 | >16 | 0.5 | 0.25 | 0.5 | 0.25 | 0.5 | 0.25 | 0.5 | 0.25 | 1 | 0.5 | 1 | 0.5 | 1 | 0.5 | 1 | 0.5 | MIC P. aeruginosa PA14 4.18 (pmrB), 12.5% MHB [1]: 1 µg/mL; MIC P. aeruginosa PA14 4.18 (pmrB), full MHB [1]: 2 µg/mL; MIC P. aeruginosa PA14 4.18 ([1]; 12.5% MH pH 7.4): 1 µg/mL; MIC P. aeruginosa PA14 4.18 ([1]; full MH pH 7.4): 2 µg/mL; MIC E. coli BW25113 SbmA-, 12.5% MH [2, 3]: 1 µg/mL; MIC E. coli BW25113 SbmA-, Full MH [2, 4]: 1 µg/mL; MIC E. coli BW25113 WT, 12.5% MH (E. coli BW25113 WT; [3]): 1 to 2 µg/mL; MIC E. coli BW25113 WT, Full MH (E. coli BW25113 WT; [4]): 2 µg/mL |
